Laboratory results: ChEMBL document CHEMBL1201862, “PubChem BioAssay data set” (2004)
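Test compounds were applied to cells in 96-well plates for 48 hours at 5 doses. Abbreviation: GI50, concentration required for 50% inhibition of growth.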 Activity calls are given as the source filed them. No stated cut-off is given here; in the data, active = GI50 up to about 1.1 µM and inactive = higher.

Experiments:
Assay in all cases: NCI anticancer screen, dose series, 48 h
MOLT-4 = tested on: MOLT-4
SF-295 = tested on: SF-295
OVCAR-4 = tested on: OVCAR-4
SNB-75 = tested on: SNB-75
CCRF-CEM = tested on: CCRF-CEM
A549 = tested on: A549
OVCAR-8 = tested on: OVCAR-8
SW-620 = tested on: SW-620
NCI-H522 = tested on: NCI-H522
OVCAR-5 = tested on: OVCAR-5
A498 = tested on: A498
SF-539 = tested on: SF-539
786-0 = tested on: 786-0
HOP-92 = tested on: HOP-92
M14 = tested on: M14
TK-10 = tested on: TK-10
HL-60 = tested on: HL-60
NCI-H226 = tested on: NCI-H226

Compound	GI50 (MOLT-4)	GI50 (SF-295)	GI50 (OVCAR-4)	GI50 (SNB-75)	GI50 (CCRF-CEM)	GI50 (A549)	GI50 (OVCAR-8)	GI50 (SW-620)	GI50 (NCI-H522)	GI50 (OVCAR-5)	GI50 (A498)	GI50 (SF-539)	GI50 (786-0)	GI50 (HOP-92)	GI50 (M14)	GI50 (TK-10)	GI50 (HL-60)	GI50 (NCI-H226)
CCN(CC)CC(C)(C)C(=O)/C=C/c1ccc(C)cc1	3.39 µM (inactive)	13.2 µM (inactive)	11.6 µM (inactive)	6.98 µM (inactive)	2.82 µM (inactive)	12.9 µM (inactive)	11.8 µM (inactive)	3.55 µM (inactive)	3.03 µM (inactive)	14.5 µM (inactive)	4.54 µM (inactive)	13.3 µM (inactive)	10.7 µM (inactive)	1.91 µM (inactive)	12.1 µM (inactive)	14.5 µM (inactive)		
CCOC(=O)C1=C(Nc2ccccc2)OC/C1=N\NC(=O)Cc1ccccc1	> 50 µM (inactive)	> 50 µM (inactive)	> 50 µM (inactive)	31.4 µM (inactive)	> 50 µM (inactive)	> 50 µM (inactive)	> 50 µM (inactive)	> 50 µM (inactive)	> 50 µM (inactive)	> 50 µM (inactive)	> 50 µM (inactive)	> 50 µM (inactive)	> 50 µM (inactive)	> 50 µM (inactive)	> 50 µM (inactive)	> 50 µM (inactive)	> 50 µM (inactive)	> 50 µM (inactive)
CN(c1nc(=[N+](C)C)ss1)C1CCCCC1	95.1 µM (inactive)	93.1 µM (inactive)	> 100 µM (inactive)	> 100 µM (inactive)	6.92 µM (inactive)	38.3 µM (inactive)	> 100 µM (inactive)	> 100 µM (inactive)	> 100 µM (inactive)	> 100 µM (inactive)	> 100 µM (inactive)	> 100 µM (inactive)	> 100 µM (inactive)	> 100 µM (inactive)	> 100 µM (inactive)	> 100 µM (inactive)	> 100 µM (inactive)	> 100 µM (inactive)
Cc1cc(C(C)(C)C)cc(Cc2cc(C(C)(C)C)cc(Cc3cc(C(C)(C)C)cc(C)c3O)c2O)c1O	3.04 µM (inactive)	16 µM (inactive)	7.5 µM (inactive)	4.49 µM (inactive)	3.04 µM (inactive)	5.86 µM (inactive)	5.5 µM (inactive)	5.28 µM (inactive)	3.71 µM (inactive)	17.5 µM (inactive)	19.5 µM (inactive)	7.71 µM (inactive)	5.64 µM (inactive)	2.94 µM (inactive)	7.26 µM (inactive)	16.3 µM (inactive)	3.71 µM (inactive)	12.1 µM (inactive)
CCCCN(CCCC)C(=O)C(=O)C(C#N)c1ccc(C)cc1 (stereo not drawn)	> 100 µM (inactive)	> 100 µM (inactive)	> 100 µM (inactive)	> 100 µM (inactive)	> 100 µM (inactive)	> 100 µM (inactive)	> 100 µM (inactive)	> 100 µM (inactive)	> 100 µM (inactive)	> 100 µM (inactive)	> 100 µM (inactive)	> 100 µM (inactive)	> 100 µM (inactive)	> 100 µM (inactive)	> 100 µM (inactive)	> 100 µM (inactive)	> 100 µM (inactive)	> 100 µM (inactive)
CC1(C)c2ccccc2C(C)(C)C(C(=O)Nc2ccccc2)C1C(=O)O (stereo not drawn)	> 100 µM (inactive)	> 100 µM (inactive)		> 100 µM (inactive)	> 100 µM (inactive)	> 100 µM (inactive)	> 100 µM (inactive)	> 100 µM (inactive)	> 100 µM (inactive)	> 100 µM (inactive)	> 100 µM (inactive)	> 100 µM (inactive)	> 100 µM (inactive)	> 100 µM (inactive)	> 100 µM (inactive)	> 100 µM (inactive)	> 100 µM (inactive)	> 100 µM (inactive)
N=S(c1ccccc1[N+](=O)[O-])c1ccccc1[N+](=O)[O-]	2.61 µM (inactive)		0.553 µM (active)	6.34 µM (inactive)	0.687 µM (active)	6.67 µM (inactive)	3.65 µM (inactive)		0.561 µM (active)	6.08 µM (inactive)	16.6 µM (inactive)	4.58 µM (inactive)	1.95 µM (inactive)	1.98 µM (inactive)	2.09 µM (inactive)	2.69 µM (inactive)		5.6 µM (inactive)
C=CCNC1=NC(=O)C(CC(=O)Nc2cccc(Cl)c2)S1 (stereo not drawn)	> 100 µM (inactive)	> 100 µM (inactive)	> 100 µM (inactive)	> 100 µM (inactive)	> 100 µM (inactive)	> 100 µM (inactive)	> 100 µM (inactive)	> 100 µM (inactive)	> 100 µM (inactive)	> 100 µM (inactive)	> 100 µM (inactive)	> 100 µM (inactive)	> 100 µM (inactive)		> 100 µM (inactive)	> 100 µM (inactive)	> 100 µM (inactive)	> 100 µM (inactive)
COc1ccc2nc3cc(Cl)ccc3c(Sc3ccc([N+](=O)[O-])cc3C)c2c1	> 100 µM (inactive)	> 100 µM (inactive)	> 100 µM (inactive)	> 100 µM (inactive)	> 100 µM (inactive)	> 100 µM (inactive)	> 100 µM (inactive)	> 100 µM (inactive)	> 100 µM (inactive)	> 100 µM (inactive)	> 100 µM (inactive)	> 100 µM (inactive)	> 100 µM (inactive)	> 100 µM (inactive)	> 100 µM (inactive)	> 100 µM (inactive)		> 100 µM (inactive)
Cc1ccccc1NC(=O)C(=O)C1CN(c2ccccc2)N=C1N (stereo not drawn)	> 100 µM (inactive)		> 100 µM (inactive)	86.5 µM (inactive)	> 100 µM (inactive)	> 100 µM (inactive)	> 100 µM (inactive)		> 100 µM (inactive)		> 100 µM (inactive)	> 100 µM (inactive)	> 100 µM (inactive)	> 100 µM (inactive)	> 100 µM (inactive)		> 100 µM (inactive)	> 100 µM (inactive)
CC(=O)O[C@H]1CC[C@@]2(C)C(=CC[C@@H]3C2CC[C@]2(C)C(=O)NC(=O)CC32)C1 (stereo partly drawn)	> 100 µM (inactive)	> 100 µM (inactive)	> 100 µM (inactive)	> 100 µM (inactive)	> 73.8 µM (inactive)	> 100 µM (inactive)	> 100 µM (inactive)	> 56.6 µM (inactive)	27.9 µM (inactive)	> 100 µM (inactive)	> 100 µM (inactive)	> 100 µM (inactive)	63.5 µM (inactive)	> 100 µM (inactive)	> 100 µM (inactive)	> 100 µM (inactive)	> 63.1 µM (inactive)	> 100 µM (inactive)
CCCCc1ccc(-n2c3nc(=O)n(C)c(=O)c-3nc3ccccc32)cc1	15.3 µM (inactive)	11.1 µM (inactive)	8 µM (inactive)	15.3 µM (inactive)	13.5 µM (inactive)	5.61 µM (inactive)	7.57 µM (inactive)	6.18 µM (inactive)	7.6 µM (inactive)	18.1 µM (inactive)	18.7 µM (inactive)	14.1 µM (inactive)	16.3 µM (inactive)		7.89 µM (inactive)	13.9 µM (inactive)	10.6 µM (inactive)	11.7 µM (inactive)
